# Experimental data as given in patent US8247211B2, “Glycopeptide antibiotics” (American Cyanamid Company, priority 2001, dated 2012).
# Experiments:
# Assay in all cases: In vitro antibacterial evaluation: minimum inhibitory concentration (MIC), broth dilution method
# Assay type in all cases: cell-based
# Conditions in all cases: 18 hours at 35° C.
# Enterococcus sp. = tested on: Enterococcus sp.
# Summary of the method: (§1)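 Using Muller-Hinton II […] and an inoculum of 5×10^5 CFU/mL, antibiotic dilutions from 64 down to 0.06 μg/mL were tested following NCCLS M7-A2. The MIC is the lowest concentration inhibiting growth, including in methicillin-, penicillin- or vancomycin-resistant clinical isolates.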
# Staphylococcus sp. = tested on: Staphylococcus sp.
# Summary of the method: as §1
# Escherichia coli = tested on: Escherichia coli
# Summary of the method: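 Susceptibility determined by NCCLS-recommended broth dilution (M7-A2), Muller-Hinton II […]. Concentration span 64-0.06 μg/mL, inoculum 5×10^5 CFU/mL. Isolates include strains resistant to methicillin, penicillin and/or vancomycin.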
# Streptococcus sp. = tested on: Streptococcus sp.
# Summary of the method: as §1
Compound,MIC Enterococcus avium (GC 4558) (Enterococcus sp.) [mg/L],MIC Enterococcus faecalis (ATCC 29212) (Enterococcus sp.) [mg/L],MIC Enterococcus faecalis (GC 2242) (Enterococcus sp.) [mg/L],MIC Enterococcus faecalis (GC 4552) (Enterococcus sp.) [mg/L],MIC Enterococcus faecalis (GC 4553) (Enterococcus sp.) [mg/L],MIC Enterococcus faecalis (GC 4554) (Enterococcus sp.) [mg/L],MIC Enterococcus faecium (GC 2243) (Enterococcus sp.) [mg/L],MIC Enterococcus faecium (GC 4556) (Enterococcus sp.) [mg/L],MIC Enterococcus faecium (GC 4557) (Enterococcus sp.) [mg/L],MIC Coagulase Negative Staphylococcus (GC 4547) (Staphylococcus sp.) [mg/L],MIC Coagulase Negative Staphylococcus (GC 4548) (Staphylococcus sp.) [mg/L],MIC Coagulase Negative Staphylococcus (GC 4549) (Staphylococcus sp.) [mg/L],MIC Coagulase Negative Staphylococcus (GC 4551) (Staphylococcus sp.) [mg/L],MIC Coagulase Negative Staphylococcus (ID-3941) (Staphylococcus sp.) [mg/L],MIC Staphylococcus aureus (ATCC 29213) (Staphylococcus sp.) [mg/L],MIC Staphylococcus aureus (GC 1131) (Staphylococcus sp.) [mg/L],MIC Staphylococcus aureus (GC 4541) (Staphylococcus sp.) [mg/L],MIC Staphylococcus aureus (GC 4542) (Staphylococcus sp.) [mg/L],MIC Staphylococcus aureus (GC 4544) (Staphylococcus sp.) [mg/L],MIC Staphylococcus aureus (GC 4545) (Staphylococcus sp.) [mg/L],further results
"CCCCCNC(=O)OC1C(CO)OC(OC2C(CO)OC(Oc3ccc(CC4NC(=O)C(C(C)c5ccccc5)NC(=O)CNC(=O)C(CO)NC(=O)C(C(O)C5CNC(=N)N5C5OC(CO)C(O)C(O)C5O)NC(=O)C(C(O)C5CNC(=N)N5)NC4=O)cc3)C(O)C2O)C(O)C1O (stereo not drawn) [Example 251, α-O-[(Pentylamino)carbonyl]-cyclo[glycyl-β-methylphenylalanyl-O-(4-O-hexopyranosylhexopyranosyl)tyrosyl-3-(2-iminoimidazolidin-4-yl)seryl-3-(3-hexopyranosyl-2-iminoimidazolidin-4-yl)serylseryl]]",>64,>64,>64,>64,>64,>64,>64,>64,64,>64,>64,>64,>64,64,>64,>64,>64,>64,>64,>64,MIC Staphylococcus aureus-SMITH (GC 4543) (Staphylococcus sp.): >64 mg/L; MIC Staphylococcus haemolyticus (GC 4546) (Staphylococcus sp.): >64 mg/L; MIC Escherichia coli (ATCC 25922) (Escherichia coli): >64 mg/L; MIC Escherichia coli (GC 4559) (Escherichia coli): >64 mg/L; MIC Escherichia coli (GC 4560) (Escherichia coli): 4 mg/L; MIC Streptococcus agalactiae (GC 4564) (Streptococcus sp.): >64 mg/L; MIC Streptococcus pneumoniae (GC 4565) (Streptococcus sp.): 64 mg/L; MIC Streptococcus pyogenes (ID-3187) (Streptococcus sp.): 64 mg/L
"CCCCCNC(=O)OCC1OC(OC2C(CO)OC(Oc3ccc(CC4NC(=O)C(C(C)c5ccccc5)NC(=O)CNC(=O)C(CO)NC(=O)C(C(O)C5CNC(=N)N5C5OC(CO)C(O)C(O)C5O)NC(=O)C(C(O)C5CNC(=N)N5)NC4=O)cc3)C(O)C2O)C(O)C(O)C1O (stereo not drawn) [Example 251b, γ-O-[(Pentylamino)carbonyl]-cyclo[glycyl-β-methylphenylalanyl-O-(4-O-hexopyranosylhexopyranosyl)tyrosyl-3-(2-iminoimidazolidin-4-yl)seryl-3-(3-hexopyranosyl-2-iminoimidazolidin-4-yl)serylseryl]]",64,64,32,64,64,64,64,64,4,8,8,4,16,4,16,8,8,8,16,8,MIC Staphylococcus aureus-SMITH (GC 4543) (Staphylococcus sp.): 8 mg/L; MIC Staphylococcus haemolyticus (GC 4546) (Staphylococcus sp.): 8 mg/L; MIC Escherichia coli (ATCC 25922) (Escherichia coli): >64 mg/L; MIC Escherichia coli (GC 4559) (Escherichia coli): >64 mg/L; MIC Escherichia coli (GC 4560) (Escherichia coli): 2 mg/L; MIC Streptococcus agalactiae (GC 4564) (Streptococcus sp.): 4 mg/L; MIC Streptococcus pneumoniae (GC 4565) (Streptococcus sp.): 1 mg/L; MIC Streptococcus pyogenes (ID-3187) (Streptococcus sp.): 2 mg/L
